Test results: article PMC5874699, “Antimicrobial and Antibiofilm Activity of UP-5, an Ultrashort Antimicrobial Peptide Designed Using Only Arginine and Biphenylalanine” (Pharmaceuticals, 2018)

Experiments:
[1] = test system: Staphylococcus aureus (ATCC 29213); format: cell-based; conditions: S. aureus ATCC 29213, antibiotic alone, triplicate; for Antibiotics MBC Alone: 99.9% killing; for Antibiotics MIC Alone: microbroth dilution
Source text: (§1) All bacterial susceptibility, biofilm, and synergistic assays of peptides, antibiotics, and peptides-antibiotics combinations used bacterial strains obtained from the American Type Tissue Culture Collection (ATCC, Manassas, VA, USA) that states the mechanism of resistance for each strain according to ATCC number. Gram-positive bacteria were represented by five strains, the wild type strain Staphylococcus aureus (ATCC 29213) and methicillin-resistant S. aureus (MRSA) (ATCC 33591) in addition to clinically isolated strains S. aureus (ATCC BAA-41& 43300) and Enterococcus faecalis (ATCC BAA-2316). The Gram-negative bacteria strains were represented by wild type strains of Escherichia coli (ATCC 25922 & 35218) and Pseudomonas aeruginosa (ATCC 27853) as well as the clinically isolated multidrug-resistant strain P. aeruginosa (ATCC BAA-2114). The bacteria were cultured onto Muller Hinton Agar (Scharlab, S.L, Barcelona, Spain). Mueller Hinton Broth (Oxoid Ltd., Basingstoke, UK) was used to prepare all bacterial suspensions and to dissolve the peptides and the antibiotics. The assay was performed in sterile 96-well polypropylene microtiter plates.
(§2) All bacterial susceptibility assays were conducted according to the microbroth dilution method outlined by the Clinical and Laboratory Standards Institute (CLSI) guidelines.
(§3) Briefly, pre-sterilized MHB was used as a growth medium for organisms obtained from stock media with glycerol. Bacterial cells were grown overnight in MHB and diluted to 10^6 CFU/mL in the same medium prior to use. For peptide, serial concentrations in the range of 0.5–100 μM were prepared. Then, 50 μL of each peptide concentration and 50 µL of diluted bacterial suspension were added to each well of a 96-well microtiter plate. Peptide solutions were prepared by dissolving the peptide in sterile MHB. Then, the plates were incubated overnight in a humidified atmosphere, and at 37 °C. Bacterial growth was determined by measuring the optical density (OD) at λ = 600 nm using an ELISA plate reader (Epoch, BioTek, Winooski, VT, USA) and the minimum inhibitory concentration (MIC) was determined.
(§4) As described in the previous section, the MIC and MBC values of antibiotics employed in this study were determined against subjected bacterial strains via preparing different concentrations of each antibiotic.

S. aureus (ATCC 43300) [2] = format: cell-based, Staphylococcus aureus; conditions: S. aureus ATCC 43300, antibiotic alone, triplicate; for Antibiotics MBC Alone: 99.9% killing; for Antibiotics MIC Alone: microbroth dilution
Source text: as §1, §2, §3, §4

S. aureus (ATCC BAA-41) [3] = format: cell-based, Staphylococcus aureus; conditions: S. aureus ATCC BAA-41, antibiotic alone, triplicate; for Antibiotics MBC Alone: 99.9% killing; for Antibiotics MIC Alone: microbroth dilution
Source text: as §1, §2, §3, §4

[4] = test system: methicillin-resistant S. aureus (MRSA) (ATCC 33591); test: MIC/MBC, microbroth dilution (CLSI); format: cell-based, Staphylococcus aureus; conditions: S. aureus ATCC 33591, antibiotic alone, triplicate; for Antibiotics MBC Alone: 99.9% killing; for Antibiotics MIC Alone: microbroth dilution
Source text: as §1, §2, §3, §4

[5] = test system: P. aeruginosa (ATCC BAA-2114); format: cell-based, Pseudomonas aeruginosa; conditions: P. auroginosa ATCC BAA-2114, antibiotic alone, triplicate; for Antibiotics MBC Alone: 99.9% killing; for Antibiotics MIC Alone: microbroth dilution
Source text: as §1, §2, §3, §4

S. aureus (ATCC 29213) = test: Broth microdilution checkerboard, UP-5 with antibiotics; format: cell-based, Staphylococcus aureus; conditions: for Antibiotics Reduction in MIC (%): antibiotic MIC in combination with UP-5 compared to MIC alone; for Antibiotics MIC in Combination: antibiotic in combination with UP-5, checkerboard, triplicate; for Effect of the combination according to FIC value: S. aureus (ATCC 29213)
Source text: as §1
(§5) According to the broth microdilution checkerboard technique, the MIC and MBC values of peptide-antibiotics combinations against wild type and multidrug resistant bacterial strains were determined. Serial concentrations of peptide and each antibiotic were prepared in the range of 0.005–100 μM. In each well of a 96-well microtiter plate, 25 μL of each peptide concentration were added to 25 μL of each antibiotic concentration which is followed by adding 50 μL of diluted bacterial suspension (10^6 CFU/mL) to each well. The prepared concentrations of peptide and each antibiotic were arranged into rows and columns, respectively, in a 96-well microtiter plate according the checkerboard technique. Then as described previously (see Section 2.4.1), the procedure was followed. All MIC and MBC determinations of all assays were made in triplicate.
(§6) The fractional inhibitory concentration (FIC) is defined as the inhibitory concentration of the antimicrobial combination divided by that of the single antimicrobial component. To calculate FIC index for peptide-antibiotic combinations, the following equation was used:(1) FIC index=MIC of drug X in combination/MIC of drug X alone+MIC of drug Y in combination/MIC of drug Y alone
(§7) The FIC indices were interpreted as follows: ≤0.5: synergistic activity, 0.5–1: additive activity, 1–4 indifferent, >4: antagonism. Interpretation and assessment of the FIC indices were performed according to the broth microdilution checkerboard technique.

S. aureus (ATCC 33591) = test: as above; format: cell-based, Staphylococcus aureus; conditions: for Antibiotics Reduction in MIC (%): antibiotic MIC in combination with UP-5 compared to MIC alone; for Antibiotics MIC in Combination: antibiotic in combination with UP-5, checkerboard, triplicate; for Effect of the combination according to FIC value: S. aureus (ATCC 33591)
Source text: as §1, §5, §6, §7

S. aureus (ATCC 43300) [6] = test: as above; format: cell-based, Staphylococcus aureus; conditions: for Antibiotics Reduction in MIC (%): antibiotic MIC in combination with UP-5 compared to MIC alone; for Antibiotics MIC in Combination: antibiotic in combination with UP-5, checkerboard, triplicate; for Effect of the combination according to FIC value: S. aureus (ATCC 43300)
Source text: as §1, §5, §6, §7

S. aureus (ATCC BAA-41) [7] = test: as above; format: cell-based, Staphylococcus aureus; conditions: for Antibiotics Reduction in MIC (%): antibiotic MIC in combination with UP-5 compared to MIC alone; for Effect of the combination according to FIC value: S. aureus (ATCC BAA-41); for Antibiotics MIC in Combination: antibiotic in combination with UP-5, checkerboard, triplicate
Source text: as §1, §5, §6, §7

[8] = test system: P. aeruginosa (ATCC BAA-2114); test: as above; format: cell-based, Pseudomonas aeruginosa; conditions: for Effect of the combination according to FIC value: P. aeruginosa (ATCC 2114 as printed); for Antibiotics Reduction in MIC (%): antibiotic MIC in combination with UP-5 compared to MIC alone; for Antibiotics MIC in Combination: antibiotic in combination with UP-5, checkerboard, triplicate
Source text: as §1, §5, §6, §7

Compound	Antibiotics MBC Alone [1] [µM]	Antibiotics MIC Alone [1] [µM]	Antibiotics MBC Alone (S. aureus (ATCC 43300) [2]) [µM]	Antibiotics MIC Alone (S. aureus (ATCC 43300) [2]) [µM]	Antibiotics MBC Alone (S. aureus (ATCC BAA-41) [3]) [µM]	Antibiotics MIC Alone (S. aureus (ATCC BAA-41) [3]) [µM]	Antibiotics MBC Alone [4] [µM]	Antibiotics MIC Alone [4] [µM]	Antibiotics MBC Alone [5] [µM]	Antibiotics Reduction in MIC (%) (S. aureus (ATCC 29213); S. aureus ATCC 29213)	Antibiotics MIC in Combination (S. aureus (ATCC 29213); S. aureus ATCC 29213) [µM]	Antibiotics Reduction in MIC (%) (S. aureus (ATCC 33591); S. aureus ATCC 33591)	Antibiotics MIC in Combination (S. aureus (ATCC 33591); S. aureus ATCC 33591) [µM]	Antibiotics Reduction in MIC (%) (S. aureus (ATCC 43300) [6]; S. aureus ATCC 43300)	Antibiotics MIC in Combination (S. aureus (ATCC 43300) [6]; S. aureus ATCC 43300) [µM]	Antibiotics Reduction in MIC (%) (S. aureus (ATCC BAA-41) [7]; S. aureus ATCC BAA-41)	Effect of the combination according to FIC value ([8]; antibiotic-UP-5 combination)	Antibiotics Reduction in MIC (%) ([8]; P. auroginosa ATCC BAA-2114)	Antibiotics MIC in Combination ([8]; P. auroginosa ATCC BAA-2114) [µM]	Antibiotics MIC Alone [5] [µM]	also measured
CC[C@H]1OC(=O)[C@H](C)[C@@H](O[C@H]2C[C@@](C)(OC)[C@@H](O)[C@H](C)O2)[C@H](C)[C@@H](O[C@@H]2O[C@H](C)C[C@H](N(C)C)[C@H]2O)[C@](C)(O)C[C@@H](C)C(=O)[C@H](C)[C@@H](O)[C@]1(C)O [Erythromycin, erythromycin]	1.5	0.5	150	100	400	350	10	8	150	<50	0.5	<50	8	<50	100	64.3	additive (0.5–1: additive activity)	60	50	–	–
C[C@H]1COc2c(N3CCN(C)CC3)c(F)cc3c(=O)c(C(=O)O)cn1c23 [Levofloxacin, levofloxacin]	0.5	0.5	20	20	10	10	10	10	12	90	0.05	87.5	1.25	–	5	<50	additive (0.5–1: additive activity)	58.3	5	12	Effect of the combination according to FIC value (S. aureus (ATCC 29213); antibiotic-UP-5 combination): synergistic (≤0.5: synergistic activity); Antibiotics Reduction in MIC (%) (S. aureus (ATCC 29213); S. aureus ATCC 29213, listed as levofloxacin): 87.5%; FIC Index (S. aureus (ATCC 29213); S. aureus ATCC 29213, antibiotic-UP-5 combination, checkerboard): 0.11; Effect of the combination according to FIC value (S. aureus (ATCC 33591); antibiotic-UP-5 combination): synergistic (≤0.5: synergistic activity); Antibiotics Reduction in MIC (%) (S. aureus (ATCC 33591); S. aureus ATCC 33591, listed as levofloxacin): 90%; FIC Index (S. aureus (ATCC 33591); S. aureus ATCC 33591, antibiotic-UP-5 combination, checkerboard): 0.13; Effect of the combination according to FIC value (S. aureus (ATCC 43300) [6]; antibiotic-UP-5 combination): synergistic (≤0.5: synergistic activity); FIC Index (S. aureus (ATCC 43300) [6]; S. aureus ATCC 43300, antibiotic-UP-5 combination, checkerboard): 0.25; Effect of the combination according to FIC value (S. aureus (ATCC BAA-41) [7]; antibiotic-UP-5 combination): indifferent (1–4 indifferent); Antibiotics MIC in Combination (S. aureus (ATCC BAA-41) [7]; S. aureus ATCC BAA-41): 10 µM; FIC Index (S. aureus (ATCC BAA-41) [7]; S. aureus ATCC BAA-41, antibiotic-UP-5 combination, checkerboard): 2; FIC Index ([8]; P. auroginosa ATCC BAA-2114, antibiotic-UP-5 combination, checkerboard): 0.78
CO[C@H]1/C=C/O[C@@]2(C)Oc3c(C)c(O)c4c(O)c(c(/C=N/N5CCN(C)CC5)c(O)c4c3C2=O)NC(=O)/C(C)=C\C=C\[C@H](C)[C@H](O)[C@@H](C)[C@@H](O)[C@@H](C)[C@H](OC(C)=O)[C@@H]1C [Rifampicin, rifampicin]	0.025	0.025	1	1	0.005	0.005	0.04	0.04	50	<50	0.025	87.5	0.005	87.5	–	60	synergistic (≤0.5: synergistic activity)	–	0.25	50	Effect of the combination according to FIC value (S. aureus (ATCC 29213); antibiotic-UP-5 combination): indifferent (1–4 indifferent); Effect of the combination according to FIC value (S. aureus (ATCC 33591); antibiotic-UP-5 combination): synergistic (≤0.5: synergistic activity); Effect of the combination according to FIC value (S. aureus (ATCC 43300) [6]; antibiotic-UP-5 combination): synergistic (≤0.5: synergistic activity); Effect of the combination according to FIC value (S. aureus (ATCC BAA-41) [7]; antibiotic-UP-5 combination): indifferent (1–4 indifferent); Antibiotics MIC in Combination (S. aureus (ATCC BAA-41) [7]; S. aureus ATCC BAA-41): 0.002 µM
